Results reported in patent US10173991B2, “Sulfone amide linked benzothiazole inhibitors of endothelial lipase” (BRISTOL-MYERS SQUIBB COMPANY, priority 2014, dated 2019).

target: Endothelial lipase (EL) (Homo sapiens (Human), UniProt Q9Y5X9); test: Endothelial lipase (EL) enzymatic assay with fluorescent substrate A10070 in DMPG vesicles; assay type: biochemical; details: not given
Experimental: Endothelial lipase (EL) and hepatic lipase (HL) activities were measured using a fluorescent substrate, A10070, (Invitrogen, CA) doped into an artificial vesicle containing DMPG (Avanti Polar Lipids) as the excipient. Vesicles were prepared by combining 571 μL of 29 mM DMPG in a 1:1 mixture of MeOH and CHCl3 with 2000 μL of 1 mM A10070 in a 1:1 mixture of MeOH and CHCl3. The mixture was dried under nitrogen in multiple vials then resuspended in 20 mL total volume of 50 mM HEPES pH 8.0 buffer containing 50 mM NaCl and 0.2 mM EDTA. The sample was allowed to sit at room temperature for 15 min and then was sonicated 3×4 mins on ice with a Branson Sonicator using duty cycle 1. This preparation provides vesicles with a mole fraction of 0.11 for the FRET substrate.
The enzymatic assay was measured using 384-well white Optiplates. Each well contained 20 μL of assay buffer (50 mM HEPES pH 8.0, 50 mM NaCl and 1 mM CaCl2) and 0.25 μL of a DMSO solution containing a compound of interest. EL or HL (10 μL) was added and allowed to incubate with the compound for 30 min at 37° C. The source of EL was conditioned media obtained from HT-1080 cells that were transformed using RAGE technology (Athersys) to overexpress endogenous EL, and HL was partially purified from conditioned media obtained from COS cells overexpressing HL. The reaction was started by the addition of 10 μL of a 1:10 dilution of vesicles. The final total reaction volume was […]. The reaction rates were measured on a Gemini plate reader with an excitation wavelength of 490 nm and an emission wavelength of 530 nm. Readings were taken over a period of 60 minutes, and the slope between 300 and 900 secs of the readout was used to calculate the rate of the reaction.

Sequence of Endothelial lipase (EL) (Q9Y5X9 21-500): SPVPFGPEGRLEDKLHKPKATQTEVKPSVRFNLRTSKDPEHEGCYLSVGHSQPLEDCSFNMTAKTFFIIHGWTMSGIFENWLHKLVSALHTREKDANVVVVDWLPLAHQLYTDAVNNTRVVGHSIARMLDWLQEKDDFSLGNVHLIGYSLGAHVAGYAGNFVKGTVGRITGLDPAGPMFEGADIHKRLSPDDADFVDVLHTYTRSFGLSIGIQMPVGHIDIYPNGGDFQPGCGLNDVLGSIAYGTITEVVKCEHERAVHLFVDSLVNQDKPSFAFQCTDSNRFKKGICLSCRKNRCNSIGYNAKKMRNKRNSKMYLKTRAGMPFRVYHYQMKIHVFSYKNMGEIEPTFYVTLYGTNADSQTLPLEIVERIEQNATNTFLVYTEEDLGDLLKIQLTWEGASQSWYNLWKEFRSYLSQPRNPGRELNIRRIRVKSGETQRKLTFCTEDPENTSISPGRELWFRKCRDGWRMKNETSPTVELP

SMILES	IC50
COCCS(=O)(=O)C(C(=O)NCC(=O)NC1CC1)c1nc2cc(F)c(-c3ccc(-c4nnc(C)o4)cc3)cc2s1 (centres unmarked) [Example 147, N-[(cyclopropyl-carbamoyl)methyl]-2-{5-fluoro-6-[4-(5-methyl-1,3,4-oxadiazol-2-yl)phenyl]-1,3-benzothiazol-2-yl}-2-(2-methoxyethane-sulfonyl) acetamide]	4 nM
Cc1cc2nc(C(C(=O)NCC(=O)NC3CC3)S(=O)(=O)C(C)C)sc2cc1-c1ccc2c(=O)n(C)ccc2c1 (centres unmarked) [Example 256, N-[(cyclopropyl-carbamoyl)methyl]-2-[5-methyl-6-(2-methyl-1-oxo-1,2-dihydro-isoquinolin-6-yl)-1,3-benzothiazol-2-yl]-2-(propane-2-sulfonyl) acetamide]	3 nM
CN(C)C(=O)c1ccc(-c2ccc3nc(C(C(=O)NCC(=O)NC4CC4)S(=O)(=O)Cc4ccc(F)cc4)sc3c2)cc1 (centres unmarked) [Example 214, 4-[2-({[(cyclopropyl-carbamoyl)methyl]carbamoyl}(4-fluorophenyl)methanesulfonyl-methyl)-1,3-benzothiazol-6-yl]-N,N-dimethyl-benzamide]	18 nM
CC(C)S(=O)(=O)C(C(=O)NCC(=O)NC1CC1)c1nc2cc(C(F)(F)F)c(-c3cccc(C(=O)N(C)C)c3)cc2s1 (centres unmarked) [Example 175, 3-[2-({[(cyclopropyl-carbamoyl)methyl]carbamoyl} (propane-2-sulfonyl)methyl)-5-(trifluoromethyl)-1,3-benzothiazol-6-yl]-N,N-dimethyl-benzamide]	37 nM
COCCS(=O)(=O)C(C(=O)NCC(=O)NC1CC1)c1nc2cc(F)c(-c3ccc4c(c3)CNC4=O)cc2s1 (centres unmarked) [Example 150, N-[(cyclopropyl-carbamoyl)methyl]-2-[5-fluoro-6-(1-oxo-2,3-dihydro-1H-isoindol-5-yl)-1,3-benzothiazol-2-yl]-2-(2-methoxyethane-sulfonyl) acetamide]	2 nM
COCCS(=O)(=O)C(C(=O)NCC(=O)NC1CC1)c1nc2c(F)cc(-c3cnc(C4CC4)nc3)cc2s1 (centres unmarked) [Example 223, N-[(cyclopropyl-carbamoyl)methyl]-2-[6-(2-cyclopropyl-pyrimidin-5-yl)-4-fluoro-1,3-benzothiazol-2-yl]-2-(2-methoxyethane-sulfonyl) acetamide]	80 nM
COCCS(=O)(=O)C(C(=O)NCC(=O)NC1CC1)c1nc2c(F)cc(-c3cnc(OC)c(F)c3)cc2s1 (centres unmarked) [Example 206, N-[(cyclopropyl-carbamoyl)methyl]-2-[4-fluoro-6-(5-fluoro-6-methoxypyridin-3-yl)-1,3-benzothiazol-2-yl]-2-(2-methoxyethane-sulfonyl) acetamide]	9 nM
COCCS(=O)(=O)C(C(=O)NCC(=O)NC1CC1)c1nc2ccc(-c3ccc(NC(=O)OC)cc3)cc2s1 (centres unmarked) [Example 100, methyl N-{4-[2-({[(cyclopropyl-carbamoyl)methyl]carbamoyl}(2-methoxyethane-sulfonyl)methyl)-1,3-benzothiazol-6-yl]phenyl} carbamate]	8 nM
COCCS(=O)(=O)C(C(=O)NCC(=O)NC1CC1)c1nc2cc(-c3cnnc(C)c3)c(F)cc2s1 (centres unmarked) [Example 351, N-[(cyclopropyl-carbamoyl)methyl]-2-[6-fluoro-5-(6-methylpyridazin-4-yl)-1,3-benzothiazol-2-yl]-2-(2-methoxyethane-sulfonyl)acetamide]	36 nM

More lines, now with the values ahead:

IC50	SMILES
40 nM	COCCS(=O)(=O)C(C(=O)NCC(=O)NC1CC1)c1nc2cc(C)c(-c3cnnc(C)c3)cc2s1 (centres unmarked) [Example 186, N-[(cyclopropyl-carbamoyl)methyl]-2-(2-methoxyethane-sulfonyl)-2-[5-methyl-6-(6-methylpyridazin-4-yl)-1,3-benzothiazol-2-yl]acetamide]
29 nM	O=C(CNC(=O)C(c1nc2ccc(-c3ccc(F)nc3)cc2s1)S(=O)(=O)CCC(F)(F)F)NC1CC1 (centres unmarked) [Example 56, N-[(cyclopropyl-carbamoyl)methyl]-2-[6-(6-fluoropyridin-3-yl)-1,3-benzothiazol-2-yl]-2-(3,3,3-trifluoropropane-sulfonyl)acetamide]
14 nM	COc1ncc(-c2cc3sc(C(C(=O)NCC(=O)NC4CC4)S(=O)(=O)C(C)C)nc3cc2C)cc1F (centres unmarked) [Example 211, N-[(cyclopropyl-carbamoyl)methyl]-2-[6-(5-fluoro-6-methoxypyridin-3-yl)-5-methyl-1,3-benzothiazol-2-yl]-2-(propane-2-sulfonyl) acetamide]
14 nM	COCCS(=O)(=O)C(C(=O)NCC(=O)NC1CC1)c1nc2cc(F)c(-c3ccc(C(=O)N4CCOCC4)cc3)cc2s1 (centres unmarked) [Example 161, N-[(cyclopropyl-carbamoyl)methyl]-2-{5-fluoro-6-[4-(morpholine-4-carbonyl)phenyl]-1,3-benzothiazol-2-yl}-2-(2-methoxyethane-sulfonyl) acetamide]
13 nM	COCCS(=O)(=O)C(C(=O)NCC(=O)NC1CC1)c1nc2ccc(-c3ccc(C(=O)N4CC(F)(F)C4)cc3)cc2s1 (centres unmarked) [Example 406, N-[(cyclopropyl-carbamoyl)methyl]-2-{6-[4-(3,3-difluoroazetidine-1-carbonyl)phenyl]-1,3-benzothiazol-2-yl}-2-(2-methoxyethane-sulfonyl)acetamide]
12 nM	COCCS(=O)(=O)C(C(=O)NCC(=O)NC1CC1)c1nc2ccc(-c3ccc(=O)n(C)c3)cc2s1 (centres unmarked) [Example 315, N-[(cyclopropyl-carbamoyl)methyl]-2-(2-methoxyethane-sulfonyl)-2-[6-(1-methyl-6-oxo-1,6-dihydropyridin-3-yl)-1,3-benzothiazol-2-yl}acetamide]
5 nM	Cc1nc2cc(-c3cc4sc(C(C(=O)NCC(=O)NC5CC5)S(=O)(=O)C(C)C)nc4cc3F)ccc2s1 (centres unmarked) [Example 238, N-[(cyclopropyl-carbamoyl)methyl]-2-[5-fluoro-6-(2-methyl-1,3-benzothiazol-5-yl)-1,3-benzothiazol-2-yl]-2-(propane-2-sulfonyl)acetamide]
3 nM	CS(=O)(=O)C(C(=O)NCC(=O)NC1CC1)c1nc2cc(OC(F)F)c(-c3cccc(-n4cccn4)c3)cc2s1 (centres unmarked) [Example 605, N-[(cyclopropyl-carbamoyl)methyl]-2-[5-(difluoromethoxy)-6-[3-(1H-pyrazol-1-yl)phenyl]-1,3-benzothiazol-2-yl]-2-methanesulfonyl-acetamide]
3 nM	CC(C)S(=O)(=O)C(C(=O)NCC(=O)NC1CC1)c1nc2cc(-c3cccc4c3cnn4C)c(F)cc2s1 (centres unmarked) [Example 274, N-[(cyclopropyl-carbamoyl)methyl]-2-[6-fluoro-5-(1-methyl-1H-indazol-4-yl)-1,3-benzothiazol-2-yl]-2-(propane-2-sulfonyl)acetamide]
1 nM	CS(=O)(=O)C(C(=O)NCC(=O)NC1CC1)c1nc2cc(F)c(-c3ccc(NC(=O)CCc4ccccc4)cc3)cc2s1 (centres unmarked) [Example 576, N-{4-[2-({[(cyclopropyl-carbamoyl)methyl]carbamoyl} (methanesulfonyl)methyl)-5-fluoro-1,3-benzothiazol-6-yl]phenyl}-3-phenyl-propanamide]

same assay, conditions: reference compounds; EL from conditioned media of HT-1080 cells; 30 min preincubation at 37° C.

IC50	SMILES
> 62000 nM	CC(C)c1cc(CNC(=O)C(C)(C)c2nc3ccc(-c4ccccc4)cc3s2)on1 [Reference 2, N-((3-Isopropylisoxazol-5-yl)methyl)-2-methyl-2-(6-phenylbenzo[d]thiazol-2-yl)propanamide, reference compound]
